How the values were obtained:
Erysiphe polygoni = assay: Powdery mildew on pinto bean, foliar application (ERY POL); assay type: in vivo; conditions: similar procedure as barley (1,000 mg/l); for pest or weed control at 1000 µg/mL: Erysiphe polygoni, read-out: Percent Reduction of Disease, ERY POL
Method in brief: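 Pinto bean plants sprayed with compound emulsion (acetone or inert solvent, TWEEN 20, water) at 1,000 mg/l, or left unsprayed, dried, then inoculated with Erysiphe polygoni spores in a 21° C greenhouse. Disease scored; percent control computed against untreated controls.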

Helminthosporium sativum = assay: Barley spot blotch, foliar treatment (HEL SAT); assay type: in vivo; conditions: foliar, 1,000 mg/l; for pest or weed control at 1000 µg/mL: Helminthosporium, foliar, 216 h, read-out: Percent Reduction of Disease, HEL SAT
Method in brief: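 Percent control of H. sativum blotch was computed after foliar spraying of six-day-old "Robust" barley (10 plants/pot) at 1,000 mg/l versus unsprayed pots. Spore inoculation followed spraying, then 24 h in a 99% humidity chamber and eight days in a 21° C greenhouse.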

Scierotinia minor = assay: Fungal growth inhibition, treated disc on agar (SCL MIN); assay type: cell-based; conditions: disc dipped in 500 mg/l, 29° C.; for inhibition at 500 µg/mL: read-out: Percent Growth Inhibition, SCL MIN
Erysiphe cichoracearum = assay: Powdery mildew of cucumber, systemic root uptake (CMS); assay type: in vivo; conditions: 45 ml of 250 mg/l, 8 days after inoculation
Method in brief: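 Pot soil of barley (BMS) and cucumber (CMS) plants was drenched with 45 ml of a 250 mg/l acetone/Tween 20 aqueous emulsion, with untreated plants as controls. Disease was scored on a rating scale that included intermediate grades.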

[1] = system: Cercosporidium personatum; assay: Fungal germination and growth, treated disc on agar, scored (CER PER); assay type: cell-based; design: key: 100: Complete inhibition of germination and growth.; 80: Nearly complete inhibition but some growth.; 50: Partial inhibition of growth or, early complete inhibition but later growth begins.; 20: Some inhibition of growth, but not significant.; 0: No inhibition of growth; conditions: disc dipped in 500 mg/l, 29° C., numerical score 0-100, spore suspension
Method in brief: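 Scoring ran from 100, complete inhibition of germination and growth, down to 0, none, after incubation at 29° C. Filter discs (11 mm) soaked in test solution and air-dried to remove acetone were set on agar and inoculated with spores (20,000 spores/ml, two drops each); untreated discs served as controls.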

Pyricularia oryzae = assay: whole plant or invertebrate; assay type: in vivo; conditions: for Percent Reduction of Disease, PYR ORY: barley, foliar, 1,000 mg/l; for pest or weed control at 1000 µg/mL: Pyricularia oryzae, in Hordeum vulgare, foliar, 216 h, read-out: Percent Reduction of Disease, PYR ORY, barley, foliar, 1,000 mg/l
Colletotrichum gossypii = assay: Fungal growth inhibition, treated disc on agar (COL GOS); assay type: cell-based; conditions: disc dipped in 500 mg/l, 29° C.; for inhibition at 500 µg/mL: Colletotrichum gossypii, read-out: Percent Growth Inhibition, COL GOS
Pythium ultimum = assay: Fungal growth inhibition, treated disc on agar (PYT ULT); assay type: cell-based; conditions: disc dipped in 500 mg/l, 29° C.; for inhibition at 500 µg/mL: Globisporangium ultimum, read-out: Percent Growth Inhibition, PYT ULT
Text: Filter paper discs, each 11 mm. in diameter, were dipped in each of the test solutions. The discs were allowed to air dry to drive off the acetone solvent. A number of untreated discs were used as controls.
The treated and untreated discs were then placed on agar plates and one of the following fungus species: Septoria nodorum (SEP NOD), Botrytis cinerea (BOT CIN), Fusarium oxysporum (FUS OXY), Pythium ultimum (PYT ULT), Rhizoctonia solani (RHI SOL), Colletotrichum gossypii (COL GOS), and Scierotinia minor (SCL MIN), was added to the center of each disc in the form of a culture plug with the fungus mat in contact with the paper of the test disc. Cercosporidium personatum (CER PER), was added to discs as a spore suspension (20,000 spores/ml) to the disc (two drops of spore suspension per disc), rather than a mycelial culture plug. The plates were then incubated at 29° C. in an oven.
With the exception of the discs containing Cercosporidium personatum, the discs were evaluated by first measuring the radius from the center of the fungus colony on the treated discs and on the untreated discs. Percent growth inhibition of each of the compounds tested was determined as a function of the difference between the radius of the fungus colony on the treated disc versus the radius of the fungus colony on the untreated disc.

Row | Structure (SMILES) | Percent Reduction of Disease, ERY POL (Erysiphe polygoni) [%] | Percent Reduction of Disease, HEL SAT (Helminthosporium sativum) [%] | Percent Growth Inhibition, SCL MIN (Scierotinia minor) [%] | Percent Reduction of Disease, CMS (Erysiphe cichoracearum) [%] | CER PER inhibition score [1] | Percent Reduction of Disease, PYR ORY (Pyricularia oryzae) [%] | Percent Growth Inhibition, COL GOS (Colletotrichum gossypii) [%] | Percent Growth Inhibition, PYT ULT (Pythium ultimum) [%] | pest or weed control at 1000 µg/mL (Erysiphe polygoni) [%] | pest or weed control at 1000 µg/mL (Helminthosporium sativum) [%] | inhibition at 500 µg/mL (Scierotinia minor) [%] | pest or weed control at 1000 µg/mL (Pyricularia oryzae) [%] | inhibition at 500 µg/mL (Colletotrichum gossypii) [%] | inhibition at 500 µg/mL (Pythium ultimum) [%]
1 | C=CCC(C#N)(CCc1ccc(OC)cc1)c1ccccn1 (stereo not shown) [Compound 28] | 100 | 100 | 96 | 0 | 100 | 85 | 100 | 10 |  |  |  |  |  | 
2 | N#CC(CCc1ccc(F)cc1)(CC(F)(F)F)c1cccnc1 (stereo not shown) [Compound 52] |  |  |  | 85 | 100 |  |  |  | 100 | 100 | 100 | 90 | 100 | 0
3 | COc1ccc(CCC(C#N)(CC(C)C)c2ccccn2)cc1 (stereo not shown) [Compound 29] | 100 | 100 | 94 | 0 | 100 | 85 | 95 | 0 |  |  |  |  |  | 
4 | C#CCC(C#N)(CCc1ccc(F)cc1)c1cccnc1 (stereo not shown) [Compound 41] |  |  |  | 0 | 0 |  |  |  | 100 | 100 | 48 | 92 | 100 | 9
5 | C=CCC(C#N)(CCc1ccccc1)c1cccnc1 (stereo not shown) [Compound 5] |  |  |  | 88 | 0 |  |  |  | 90 | 70 | 95 | 83 | 97 | 82
